# Results: patent US7812142B2, “Pentose derivatives as anti-hyperglycemic drugs” (Yissum Research Development Company of the Hebrew …, priority 2002, dated 2010)
# Columns and labels:
# C2 myotubes = assay: dGlc uptake assay in C2 myotubes; type: cell-based, mouse
# Description: The time-course of D-xylose effect in two types of skeletal muscle cells (L8 myocytes and C2 myotubes) was studied. L8 myocytes and C2 myotubes preconditioned in 20 mM glucose were incubated with 20 mM xylose. After 90 min the cells were washed and incubated with 20 mM glucose, and subjected to a deoxyglucose dGlc uptake assay (14).
# The inventors have also measured the effect of different doses of D-xylose in C2 myotubes. C2 myotubes preconditioned with 20 mM glucose received fresh medium containing 20 mM glucose or increasing concentrations of D-xylose. Standard dGlc uptake assay was performed after 1 hr incubation. […] D-xylose augmented the rate of hexose transport ˜2-fold within 1-2 hr; half-maximal stimulation was observed within 20-30 min, as shown in FIG. 2.
# However, in the above experiments the cells were exposed to D-xylose after removal of the conditioning glucose concentration. […] The inventors therefore added 20 mM D-xylose to C2 myotubes in the presence of 8 or 16 mM glucose and followed its effect.
# It has shown before by the inventors of the present invention that deoxyglucose (dGlc) depresses the hexose transport system in myocytes and that a subsequent incubation with low (even no) glucose fails to reverse this effect of dGlc [Sasson, S et al (1997)]. The inventors have therefore measured the effect of D-xylose on rate of hexose transport following treatment with dGlc. In one experiment, C2 myotubes preconditioned with 2 mM glucose received fresh medium containing 2 mM dGlc. A portion of the cells were washed after 30 min and received 20 MM D-xylose or 2 mM D-glucose, and subjected to a dGlc uptake assay at different time points. In another experiment, L8 myocytes preconditioned with 2 mM glucose were washed and incubated with 2 mM xylose or 2 mM dGlc. A portion of the cells were washed again after 2 hr and incubated with 20 mM xylose, and subjected to a dGlc uptake assay at different time points.
# (§1) Uptake assay of the tritiated glucose analogue, 2-deoxy-D-glucose, is routinely performed as described in [Sasson, S. and Cerasi, E. (1986) J. Biol. Chem. 261, 16827-16833].
# glucose transporter = assay: [3H]dGlc uptake with unlabeled carbohydrates (affinity for the glucose transporter) in C2 myotubes; type: cell-based, mouse
# Description: FIG. 6: Lack of affinity of D-xylose for the glucose transporters. C2 myotubes preconditioned with 20 mM glucose were subjected to [^3H]dGlc uptake assay (0.1 mM dGlc) with increasing concentrations of unlabeled dGlc, glucose or xylose. The unlabeled carbohydrates were added to the [^3H]dGlc solution in the uptake assay.
# The inventors have also determined the affinity of D-xylose for the glucose transporter. C2 myotubes preconditioned with 20 mM glucose were subjected to [^3H]dGlc uptake assay (0.1 mM dGlc) in the presence of increasing concentrations of unlabeled dGlc, glucose or xylose. The results of these experiments are depicted in FIG. 6. The affinity of D-xylose for the glucose transporter is 2 orders of magnitude lower compared to glucose. The final concentration of dGlc in the assay was 0.1 mM.
# [1] = tested on: isolated rat soleus muscles; assay: dGlc uptake in isolated soleus muscles; type: cell-based; conditions: 3 hr, 20 mM glucose with 20 mM xylose (FIG. 9)
# Description: FIG. 9: Effect of D-xylose on dGlc uptake in soleus muscles. Soleus muscles were isolated from Sabra male albino rats and incubated for 3 hr with 20 mM glucose in the absence or the presence of 20 mM xylose. The muscles were washed and subjected to dGlc uptake assay without or with insulin (500 nM). Mean±SEM (n=3).
# Some experiments with isolated rat soleus muscles were performed, in order to exclude cell-line specific effects, and to assess the physiologic relevance of the findings of the present invention. Soleus muscles were isolated from Sabra male albino rats and incubated for 3 hr with 20 mM glucose in the absence or the presence of 20 mM xylose. The muscles were washed and subjected to dGlc uptake assay without or with insulin (500 nM).
# The procedure follows that described before in [Sasson et al (1987), Diabetes 36, 1041-46].
# 3T3-L1 adipocytes = assay: Screening of methylated xylose derivatives, dGlc uptake assay (Table 1); type: cell-based; conditions: Mean±SEM (n=3-6)
# Excerpt: There are five carbon atoms in xylose available for chemical modifications. Each of these atoms was methylated by modifications of published chemical procedures [Bollenback, G. N. (1963) In Methods in carbohydrate chemistry, vol. 2 (Whistler, R. L. and Wolfrom, M. L., eds.), pp. 326-331, Academic Press, New York; Bowering, W. and Timel, T. (1958) Can. J. Chem. 36, 283-285; Levine, P. and Raymomd, A. (1933) J. Biol. Chem. 102, 331-344; Takeo, K. (1992) Carbohyd. Res. 224, 311-318]. All compounds were purified by HPLC and their structure verified by NMR spectroscopy. […] At the end of the incubation period the cells were taken for a standard [^3H]-2-deoxy-D-glucose uptake assay in the absence or the presence of 500 nM insulin (30 min exposure prior to the uptake assay).
# 3T3-L1 adipocytes and L6 myotubes were maintained for 24 hr at 20 mM glucose. Test compounds were added (0.1-20.0 mM) and the cells were incubated further for 2-45 hr. At the end of the incubation periods the cells were washed and taken for a standard [^3H]2-deoxy-D-glucose (dGlc) uptake assay. Uptake values (given for control cells) are in nmol dGlc/mg protein/min. Mean±SEM (n=3-6).
# as §1
smiles,measurement,setting,value
O=C[C@H](O)[C@@H](O)[C@H](O)CO [D-xylose],time to half-maximal stimulation,C2 myotubes,20 to 30 min
same,rate of hexose transport downregulated by dGlc,C2 myotubes; 20 mM D-xylose after 30 min 2 mM dGlc (FIG. 4A),increased the rate of hexose transport
same,hexose transport in the presence of glucose,C2 myotubes; 20 mM D-xylose with 8 or 16 mM glucose (FIG. 3),augment hexose transport
same,effect of pentoses on the rate of hexose transport,"C2 myotubes; 20 mM pentose, preconditioned with 20 mM glucose (FIG. 7)",most effective pentose
same,rate of glucose transport,"C2 myotubes; 20 mM xylose, cells preconditioned in 20 mM glucose (FIG. 1)",increases the rate of glucose transport
same,concentration at which maximal effect is obtained,"C2 myotubes; dose-response, 1 hr incubation, preconditioned with 20 mM glucose (FIG. 2)",20 mM
same,augmentation of the rate of hexose transport,C2 myotubes; within 1-2 hr,~2 fold
same,affinity for the glucose transporter compared to glucose,glucose transporter; 0.1 mM dGlc (FIG. 6),2 orders of magnitude lower
same,competition with [3H]dGlc,"glucose transporter; 0.1 mM dGlc, increasing unlabeled carbohydrate",much weaker competitor
same,molar excess necessary to achieve 50% inhibition of transport,glucose transporter; over 0.1 mM dGlc,at least 100 fold molar excess
same,increase of the rate of dGlc uptake,[1],42%
same,HEXOSE UPTAKE (Percent of Control) Without Insulin,"3T3-L1 adipocytes; 3T3-L1 adipocytes 24 hr at 20 mM glucose, test compounds 0.1-20.0 mM, 2-45 hr",189 ± 4% of Control
same,HEXOSE UPTAKE (Percent of Control) With Insulin,"3T3-L1 adipocytes; as E1, 500 nM insulin 30 min prior to uptake assay",158 ± 9% of Control
